Measurements reported in paper PMC5672931 (British Journal of Cancer, 2017).
Where “and” joins values, the source holds several entries; their conditions need not be identical. Equal values may be shown once.

How the values were obtained:
[1] = system: patients with advanced malignancies; test: safety and tolerability: adverse events; assay type: in vivo, human; details: for Diarrhoea / Fatigue / Nausea / Neutropenia / Vomiting / Abdominal pain / Alopecia / Anaemia / Decreased appetite / Dehydration / Dizziness / Febrile neutropenia / Headache / Hyperbilirubinemia / Hyperglycaemia / Hyperuricemia / Hypotension / Increased ALT / Increased AST / Increased alkaline phosphatase / Leukopenia / Pancytopenia / Thrombocytopenia / Bacterial sepsis: treatment-related
[2] = coadministration with aprepitant; ref Zhang et al, 2012; cited from earlier work
[3] = system: Rb phosphorylation and other CDK targets in keratinocytes; test: CDK targets in skin biopsies; assay type: in vivo, human
advanced malignancies = test: anti-tumour activity, RECIST v. 1.0; assay type: in vivo, human; details: parts 1 and 2; extending to 30 cycles
[4] = system: patients with solid tumours; details: weekly study; ref Nemunaitis et al, 2013; cited from earlier work
[5] = system: Rb phosphorylation and other CDK targets in metastatic melanoma biopsies; test: CDK targets in paired tumour biopsies; assay type: in vivo, human; details: three patients with metastatic melanoma
[6] = 2-h infusion at RP2D 50 mg m^−2, fifteen patients, all grades
[7] = 8- and 24-h infusion n=26, all grades
[8] = 8- and 24-h infusion n=26, grade 3–4
[9] = 8-h infusions, 16 patients, all grades
[10] = 8-h infusions, 16 patients, grade 3 or 4
[11] = 24-h infusions, 10 patients, all grades
[12] = skin biopsies post- vs pre-treatment, 2-h infusions

## CCc1cnn2c(NCc3ccc[n+]([O-])c3)cc(N3CCCC[C@H]3CCO)nc12 [dinaciclib, Dinaciclib]
[1]; one of gram-negative sepsis (29.6 mg m^−2, part 1), others related to progressive disease
  deaths before study treatment was discontinued: Eight
[1]; part 1
  SAE bacterial sepsis: 2 (6%) n (%)
  SAE febrile neutropenia: 2 (6%) n (%)
  SAE hyperbilirubinemia: 3 (8%) n (%)
  SAE hypotension: 3 (8%) n (%)
  SAE increased AST: 2 (6%) n (%)
  SAE neutropenia: 4 (11%) n (%)
[1]; part 2
  SAE febrile neutropenia: 2 (8%) n (%)
  SAE hypotension: 3 (12%) n (%)
  SAE neutropenia: 2 (8%) n (%)
[1]; part 2 (8- and 24-h infusions)
  patients with serious AEs (SAEs): 10 (38%) n (%)
[1]; [6]
  Diarrhoea: 8 (53%) n (%)
  Fatigue: 9 (60%) n (%)
  Nausea: 12 (80%) n (%)
  Neutropenia: 9 (60%) n (%)
  Vomiting: 11 (73%) n (%)
[1]; 2-h infusion n=35, all grades
  Abdominal pain: 2 (6) n (%)
  Alopecia: 4 (11) n (%)
  Anaemia: 4 (11) n (%)
  Decreased appetite: 5 (14) n (%)
  Dehydration: 3 (9) n (%)
  Diarrhoea: 16 (46%) n (%) and 16 (46) n (%)
  Dizziness: 3 (9) n (%)
  Fatigue: 13 (37%) n (%) and 13 (37) n (%)
  Febrile neutropenia: 2 (6) n (%)
  Headache: 4 (11) n (%)
  Hyperbilirubinemia: 3 (9) n (%)
  Hyperglycaemia: 1 (3) n (%)
  Hyperuricemia: 2 (6) n (%)
  Hypotension: 3 (9) n (%)
  Increased ALT: 4 (11) n (%)
  Increased AST: 6 (17) n (%)
  Increased alkaline phosphatase: 1 (3) n (%)
  Leukopenia: 8 (23) n (%)
  Nausea: 23 (66%) n (%) and 23 (66) n (%)
  Neutropenia: 18 (51%) n (%) and 18 (51) n (%)
  Pancytopenia: 1 (3) n (%)
  Thrombocytopenia: 1 (3) n (%)
  Vomiting: 23 (66%) n (%) and 23 (66) n (%)
[1]; 2-h infusion n=35, grade 3–4
  Abdominal pain: 0 n (%)
  Alopecia: 0 n (%)
  Anaemia: 0 n (%)
  Decreased appetite: 0 n (%)
  Dehydration: 1 (3) n (%)
  Diarrhoea: 0 n (%)
  Dizziness: 0 n (%)
  Fatigue: 0 n (%)
  Febrile neutropenia: 2 (6%) n (%) and 2 (6) n (%)
  Headache: 0 n (%)
  Hyperbilirubinemia: 0 n (%)
  Hyperglycaemia: 1 (3) n (%)
  Hyperuricemia: 2 (6%) n (%) and 2 (6) n (%)
  Hypotension: 1 (3) n (%)
  Increased ALT: 2 (6%) n (%) and 2 (6) n (%)
  Increased AST: 3 (9%) n (%) and 3 (9) n (%)
  Increased alkaline phosphatase: 1 (3) n (%)
  Leukopenia: 6 (17%) n (%) and 6 (17) n (%)
  Nausea: 0 n (%)
  Neutropenia: 16 (46%) n (%) and 16 (46) n (%)
  Pancytopenia: 1 (3) n (%)
  Thrombocytopenia: 1 (3) n (%)
  Vomiting: 1 (3) n (%)
[1]; [7]
  Abdominal pain: 1 (4) n (%)
  Alopecia: 2 (8) n (%)
  Anaemia: 3 (12) n (%)
  Bacterial sepsis: 1 (4) n (%)
  Decreased appetite: 2 (8) n (%)
  Dehydration: 2 (8) n (%)
  Diarrhoea: 7 (27) n (%)
  Dizziness: 2 (8) n (%)
  Fatigue: 10 (38) n (%)
  Febrile neutropenia: 2 (8) n (%)
  Headache: 0 n (%)
  Hyperbilirubinemia: 1 (4) n (%)
  Hyperglycaemia: 0 n (%)
  Hyperuricemia: 0 n (%)
  Hypotension: 5 (19) n (%)
  Increased ALT: 1 (4) n (%)
  Increased AST: 2 (8) n (%)
  Increased alkaline phosphatase: 3 (12) n (%)
  Leukopenia: 0 n (%)
  Nausea: 9 (35) n (%)
  Neutropenia: 7 (27) n (%)
  Pancytopenia: 0 n (%)
  Thrombocytopenia: 1 (4) n (%)
  Vomiting: 7 (27) n (%)
[1]; [8]
  Abdominal pain: 1 (4) n (%)
  Alopecia: 0 n (%)
  Anaemia: 0 n (%)
  Bacterial sepsis: 1 (4) n (%)
  Decreased appetite: 0 n (%)
  Dehydration: 0 n (%)
  Diarrhoea: 0 n (%)
  Dizziness: 0 n (%)
  Fatigue: 2 (8) n (%)
  Febrile neutropenia: 2 (8) n (%)
  Headache: 0 n (%)
  Hyperbilirubinemia: 1 (4) n (%)
  Hyperglycaemia: 0 n (%)
  Hyperuricemia: 0 n (%)
  Hypotension: 2 (8) n (%)
  Increased ALT: 0 n (%)
  Increased AST: 1 (4) n (%)
  Increased alkaline phosphatase: 2 (8) n (%)
  Leukopenia: 0 n (%)
  Nausea: 0 n (%)
  Neutropenia: 6 (23) n (%)
  Pancytopenia: 0 n (%)
  Thrombocytopenia: 0 n (%)
  Vomiting: 0 n (%)
[1]; [9]
  Diarrhoea: 7 (44%) n (%)
  Fatigue: 8 (50%) n (%)
  Nausea: 7 (44%) n (%)
  Neutropenia: 7 (44%) n (%)
  Vomiting: 6 (38%) n (%)
[1]; [10]
  Febrile neutropenia: 2 (13%) n (%)
  Hypotension: 2 (13%) n (%)
  Neutropenia: 6 (38%) n (%)
[1]; [11]
  Fatigue: 2 (20%) n (%)
  Increased AST: 2 (20%) n (%)
  Increased alkaline phosphatase: 2 (20%) n (%)
  Nausea: 2 (20%) n (%)
[1]; 24-h infusions, 10 patients, grade 3 or 4
  Fatigue: 2 (20%) n (%)
[2]
  effect of aprepitant on dinaciclib PK parameters: does not significantly alter dinaciclib PK parameters
[3]; [12]
  cyclin D1 levels: decreased
  p27^Kip1 levels: relatively stable
  p53 levels: increased
[3]; skin biopsies post-treatment
  Ki-67 staining: no substantial reduction
[3]; skin biopsies, 8-h infusions
  degree of changes of Rb/CDK markers: overall similar to that observed after 2-h infusions
Advanced malignancies
  patients with stable disease for at least six treatment cycles: eight
[4]
  subjects with grade ⩾3 neutropenia: 10%
[5]
  expression of Rb phosphorylated at S795: reduced expression
  expression of Rb phosphorylated at T356: reduced expression
  expression of Rb phosphorylated at other sites and of total Rb: overall preserved expression
  increases in p27^Kip1 and p53 post-treatment: occurred in two samples
